Measurements published in ChEMBL document CHEMBL4699460, “Integrating DNA-encoded chemical libraries with virtual combinatorial library screening: Optimizing a PARP10 inhibitor” (Bioorg Med Chem Lett, 2020).

Legend:
[1] = molecular target: T1, Poly [ADP-ribose] polymerase tankyrase-2 (Homo sapiens) (UniProt Q9H2K2); assay: Inhibition of TNKS2 (unknown origin) at 10 uM relative to control
T1 sequence (whole entry): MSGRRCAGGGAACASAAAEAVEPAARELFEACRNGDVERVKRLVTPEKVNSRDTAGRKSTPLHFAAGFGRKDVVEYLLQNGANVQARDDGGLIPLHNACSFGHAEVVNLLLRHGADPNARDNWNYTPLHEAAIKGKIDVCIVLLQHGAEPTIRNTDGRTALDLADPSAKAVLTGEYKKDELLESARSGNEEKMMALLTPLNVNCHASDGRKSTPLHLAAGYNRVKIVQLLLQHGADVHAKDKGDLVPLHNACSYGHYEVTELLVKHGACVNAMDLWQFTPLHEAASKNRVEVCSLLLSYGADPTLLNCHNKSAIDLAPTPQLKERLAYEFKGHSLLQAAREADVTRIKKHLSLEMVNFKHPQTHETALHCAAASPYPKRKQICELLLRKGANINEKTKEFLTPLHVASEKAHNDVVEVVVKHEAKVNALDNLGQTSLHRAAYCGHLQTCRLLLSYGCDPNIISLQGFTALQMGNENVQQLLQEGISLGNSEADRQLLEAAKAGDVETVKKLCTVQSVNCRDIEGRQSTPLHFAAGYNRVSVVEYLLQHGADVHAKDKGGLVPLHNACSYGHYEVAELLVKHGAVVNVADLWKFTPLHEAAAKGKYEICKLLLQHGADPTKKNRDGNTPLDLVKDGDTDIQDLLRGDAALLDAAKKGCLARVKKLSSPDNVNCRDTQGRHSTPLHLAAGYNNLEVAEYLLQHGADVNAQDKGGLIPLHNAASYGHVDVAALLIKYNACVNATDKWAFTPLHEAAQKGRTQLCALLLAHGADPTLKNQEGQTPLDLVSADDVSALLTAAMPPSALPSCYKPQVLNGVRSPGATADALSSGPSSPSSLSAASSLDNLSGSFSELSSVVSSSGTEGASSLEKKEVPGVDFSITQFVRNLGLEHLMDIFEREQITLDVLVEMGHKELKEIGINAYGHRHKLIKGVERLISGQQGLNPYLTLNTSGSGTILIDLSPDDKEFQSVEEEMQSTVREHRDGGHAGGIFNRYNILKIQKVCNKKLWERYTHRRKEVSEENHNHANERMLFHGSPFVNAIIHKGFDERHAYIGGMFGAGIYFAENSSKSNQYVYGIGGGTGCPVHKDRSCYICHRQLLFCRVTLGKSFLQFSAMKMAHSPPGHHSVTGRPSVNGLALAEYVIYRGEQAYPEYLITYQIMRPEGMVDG

[2] = molecular target: T2, Protein mono-ADP-ribosyltransferase PARP3 (Homo sapiens) (UniProt Q9Y6F1); assay: (§1) Inhibition of N-terminal GST tagged full length human PARP3 expressed in baculovirus infected Sf9 cells assessed as reduction in NAD+-dependent ADP ribosylation using histone as substrate at 10 uM incubated for 1 hr in presence of biotinylated NAD+ and activated DNA by chemiluminescence based microplate reader assay relative to control
T2 sequence (whole entry): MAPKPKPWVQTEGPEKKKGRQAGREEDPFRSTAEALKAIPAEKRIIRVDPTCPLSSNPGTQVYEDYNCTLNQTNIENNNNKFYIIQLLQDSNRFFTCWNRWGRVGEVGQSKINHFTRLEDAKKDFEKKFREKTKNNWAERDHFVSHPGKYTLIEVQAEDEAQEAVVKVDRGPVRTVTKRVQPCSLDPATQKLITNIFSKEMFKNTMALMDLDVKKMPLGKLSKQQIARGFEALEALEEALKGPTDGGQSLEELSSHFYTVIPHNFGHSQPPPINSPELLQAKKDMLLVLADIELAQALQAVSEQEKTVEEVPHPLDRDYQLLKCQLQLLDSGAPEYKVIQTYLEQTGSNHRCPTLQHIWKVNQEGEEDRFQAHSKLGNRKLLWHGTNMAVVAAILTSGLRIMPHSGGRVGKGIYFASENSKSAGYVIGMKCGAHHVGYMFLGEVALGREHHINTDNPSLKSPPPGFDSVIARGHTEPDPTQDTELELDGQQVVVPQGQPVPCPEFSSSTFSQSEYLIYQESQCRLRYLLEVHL

[3] = molecular target: T3, Protein mono-ADP-ribosyltransferase PARP8 (Homo sapiens) (UniProt Q8N3A8); assay: Inhibition of PARP8 (unknown origin) assessed as reduction in NAD+-dependent ADP ribosylation using histone as substrate at 10 uM incubated for 1 hr in presence of biotinylated NAD+ and activated DNA by chemiluminescence based microplate reader assay relative to control
T3 sequence (whole entry): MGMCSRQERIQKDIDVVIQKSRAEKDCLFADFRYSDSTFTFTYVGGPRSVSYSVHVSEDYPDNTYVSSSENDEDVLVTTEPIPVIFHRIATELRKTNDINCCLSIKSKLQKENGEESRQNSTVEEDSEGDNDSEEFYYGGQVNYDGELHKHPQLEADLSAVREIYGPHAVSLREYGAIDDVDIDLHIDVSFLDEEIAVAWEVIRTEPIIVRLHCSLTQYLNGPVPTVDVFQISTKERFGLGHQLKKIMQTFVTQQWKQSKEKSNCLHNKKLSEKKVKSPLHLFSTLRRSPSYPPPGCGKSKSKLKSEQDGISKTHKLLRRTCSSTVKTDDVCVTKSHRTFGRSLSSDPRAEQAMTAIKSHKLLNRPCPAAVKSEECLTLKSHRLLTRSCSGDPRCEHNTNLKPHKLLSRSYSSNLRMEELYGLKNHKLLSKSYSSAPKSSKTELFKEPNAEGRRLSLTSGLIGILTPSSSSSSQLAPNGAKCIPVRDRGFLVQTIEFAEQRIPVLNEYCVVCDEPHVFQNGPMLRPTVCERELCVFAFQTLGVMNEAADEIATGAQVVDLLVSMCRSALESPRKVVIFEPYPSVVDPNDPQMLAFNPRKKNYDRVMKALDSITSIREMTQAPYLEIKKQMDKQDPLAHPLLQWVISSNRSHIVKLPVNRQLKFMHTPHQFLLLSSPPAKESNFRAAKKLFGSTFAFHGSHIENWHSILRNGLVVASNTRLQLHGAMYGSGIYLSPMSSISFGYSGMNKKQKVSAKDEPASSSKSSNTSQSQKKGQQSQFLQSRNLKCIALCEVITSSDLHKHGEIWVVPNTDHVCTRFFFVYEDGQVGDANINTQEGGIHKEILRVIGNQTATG

[4] = molecular target: Poly [ADP-ribose] polymerase 2 (Homo sapiens) (UniProt Q9UGN5); assay: as §1, with “tagged” for “tagged full length”, “PARP2 (2 to 583 residues)” for “PARP3”
Poly [ADP-ribose] polymerase 2 (Homo sapiens), sequence (Q9UGN5 whole entry, the tested form may be a part): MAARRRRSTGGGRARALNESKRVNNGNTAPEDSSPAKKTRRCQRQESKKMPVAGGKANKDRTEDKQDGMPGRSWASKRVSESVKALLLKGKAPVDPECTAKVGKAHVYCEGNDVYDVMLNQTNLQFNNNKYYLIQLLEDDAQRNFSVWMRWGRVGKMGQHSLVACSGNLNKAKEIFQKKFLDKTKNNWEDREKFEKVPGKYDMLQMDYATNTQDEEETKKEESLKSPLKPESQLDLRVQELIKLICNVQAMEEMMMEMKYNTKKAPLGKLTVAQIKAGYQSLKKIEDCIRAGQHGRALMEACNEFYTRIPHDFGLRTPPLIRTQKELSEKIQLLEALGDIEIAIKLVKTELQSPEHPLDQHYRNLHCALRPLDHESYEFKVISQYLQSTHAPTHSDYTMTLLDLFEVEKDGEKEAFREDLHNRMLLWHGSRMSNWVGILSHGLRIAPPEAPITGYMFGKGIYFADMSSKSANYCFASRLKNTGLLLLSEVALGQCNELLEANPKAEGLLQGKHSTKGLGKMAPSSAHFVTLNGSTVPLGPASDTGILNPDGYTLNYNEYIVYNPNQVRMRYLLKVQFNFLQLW

| SMILES | inhibition [1] | inhibition [2] | inhibition [3] | inhibition [4] |
| --- | --- | --- | --- | --- |
| CC1(CNC(=O)COc2cccc3c2CCCC3=O)CCN(C(=O)CCc2nc3ccccc3[nH]c2=O)CC1 | > 50% | 22% | 5% | 100% |
| CNC(=O)[C@H](CNC(=O)CCc1nc2ccccc2[nH]c1=O)NC(=O)c1ccc2c(c1)CCCC2=O | < 25% | < 25% | < 25% | < 25% |
